These results are taken from US12485191B2, “Radiopharmaceuticals and methods of use thereof” (BOARD OF REGENTS OF THE UNIVERSITY OF NEBRASKA, priority 2017, dated 2025).

Marks after values point to notes of the source that are not given here.

The target in data set [1] is T1, cathepsin B (human Liver) (Homo sapiens, UniProt P07858).
T1 construct: from tissue; host or cells: human liver
Put plainly: Inhibition constant (Ki) of the compounds to cathepsin B. It counts as biochemical. The protocol: Determination of the Km and Vmax of Cathepsin B for Z-Arg-Arg-AMC
The solution of cathepsin B (human Liver) (50 μL, 2 nM) in assay buffer used above was mixed with 50 μL of solution of substrate Z-Arg-Arg-AMC in the assay buffer at different concentrations ([S]) (25 μM, 50 μM, 100 μM, 500 μM and 1 mM). The mixture was incubated at 37° C. and the fluorescence of the liberated aminomethylcoumarin at 460 nM using 355 nm excitation was measured at predetermined time points (0, 2, 4, 6, 8, and 10 minutes). The fluorescence intensity was plotted versus time and the reaction rates (v0) were calculated as the slope of the trend lines obtained by liner regression. Km and maximum reaction rate (Vmax-obs) was determined from the equation v0=Vmax[S]/(Km+[S]) and solved by nonlinear regression using GraphPad Prism 5. All measurements were in biological triplicate.
Determination of the Inhibition Constant (Ki) of the Compounds to Cathepsin B
The cathepsin B (human Liver) in assay buffer (25 μL) was mixed with the conjugate (25 μL) in 96-well plate. After the solution was mixed, the Z-Arg-Arg-AMC in assay buffer (50 μL) was added to the well, yielding a final cathepsin B concentration of 1 nM, conjugate concentration ([C]) of 15 nM or 5 μM, and substrate concentration ([S]) of 25 μM, 50 μM, 100 μM, 500 μM and 1 mM. The mixture was incubated at 37° C. and the fluorescence of the liberated aminomethylcoumarin at 460 nM using 355 nm excitation was measured at predetermined time points (0, 2, 4, 6, 8, and 10 minutes). The fluorescence intensity was plotted versus time with observed reaction rates (v0-obs) calculated as the slope of the trend lines obtained by liner regression. The observed rate constant (Kobs) and observed maximum reaction rate (Vmax-obs) was determined from the equation v0-obs=Vmax-obs [S]/(Kobs+[S]) and solved by nonlinear regression using GraphPad Prism 5. The Ki was calculated from the equation Kobs=Km (1+[C]/Ki). All measurements were in biological triplicate.

A short description of data set [2]: Distribution coefficient (Log D7.4) of the conjugates. Type of data set: physicochemical. As to conditions: determined by HPLC analysis.
The subject of data set [3] is HT-29 cells. Description: Intracellular trapping of the radioconjugates in living HT-29 cells (GPC, SDS-PAGE). As to conditions: for intracellular adduct formation (in words): live HT-29 cells, GPC and SDS-PAGE. Type of data set: cell-based, human. How it is done: Intracellular Trapping of the Radioconjugates in Living HT-29 Cells
To the HT-29 cells (1×10^6/well) seeded in 6-well plates was added the radioconjugates (0.74 MBq, 20 μCi) in 1 mL of cell culture medium. The cells were incubated at 37° C. for 4 hours and the medium was removed by vacuum followed washing with PBS (2×2 mL). The cells (˜3×10^6) were trypsinized and combined in microcentrifuge. The RIPA buffer (100 μL) containing Halttmprotease inhibitor (100×, 1 μL) was added to the cell pellet and vigorously vortexed for 1 minute. The suspension was incubated on ice for 15 minutes and centrifuged to remove the pellet. The supernatant (80 μL) was equally divided into two portions. The first portion (40 μL) was directly analyzed by radioactive-GPC with a flow rate of 0.6 mL/minute (40% ACN in PBS containing 0.1% sodium azide). The second portion (40 μL) of the cell lysate was mixed with Novex Tris-Glycine SDS sample buffer (2×) (40 μL) and incubated for another 15 minutes. The mixture (30 μL) was loaded onto a Novex 16% tris-glycine gel and analyzed by SDS-PAGE at 110 V for 90 minutes. The autoradiograph of the SDS-PAGE was performed as described above.

Data set [4] addresses T1, cathepsin B (human Liver). Put plainly: Cathepsin B binding of the radioconjugates (autoradiographic SDS-PAGE). To be noted: 2 hours. How it is done: Cathepsin B Binding of the Radioconjugates This procedure uses the same solutions as described above. The cathepsin B (human Liver)(3 nM, 10 μL) in storing buffer was added to the solution of the radioconjugate (500,000 cpm) in 40 μL of binding assay buffer and kept on ice for 2 hours. An aliquot (25 μL) of the solution was mixed with Novex Tris-Glycine SDS sample buffer (2×) (25 μL) and incubated for a further 10 minutes. The mixtures (20 μL) were loaded onto a Novex 16% tris-glycine gel and analyzed by SDS-PAGE at 110 V for 90 minutes. The autoradiograph of the SDS-PAGE was performed as described above.

In data set [5] the test system is HT-29 cells. Description: HT-29 cell efflux study. Type of data set: cell-based, human. To be noted: at 24 hours. The protocol: The HT-29 Cell Efflux Studies
The ^177Lu radioconjugate was added to a sterilized 1.5 mL microcentrifuge tube containing HT-29 cells ˜1×10^6) suspended in 300 μL of cell culture medium, yielding a final radioactivity concentration of 100,000 cpm/100 μL, and was incubated for 2 hours at 37° C. After the removal of the culture medium, the cells were washed with fresh medium (5×500 μL) followed by the addition of 500 μL of fresh medium for the efflux assay. At 0, 1, 2, 4, 8, and 24 hour time interval, fresh medium (500 μL) was added to the tube to replace the old medium which was harvested for quantitative analysis of the effluxed radioactivity using a gamma counter. The cells were lysed with a 10% aqueous SDS solution at 24 hour to quantify the remaining internalized radioactivity. The effluxed fraction is expressed as a percentage of the total radioactivity added to the tube, which is the sum of the effluxed and internalized fractions obtained from the study.

A short description of data set [6]: Distribution coefficient (Log D7.4) of the conjugates. It counts as physicochemical. How it is done:
Distribution Coefficient (Log D7.4) of the Conjugates The distribution coefficient was determined for each ^177Lu-labeled conjugate. In a 1.5 mL centrifuge tube, 0.5 mL of 1-octanol was added to 0.5 mL of PBS (pH 7.4) containing the radiolabeled peptide (500,000 cpm). The solution was vigorously vortexed for 2 minutes at room temperature and subsequently centrifuged to yield two immiscible layers. The radioactivity of the aliquots (100 μL) taken from each layer were quantified by the gamma counter and the Log D7.4 for each conjugates was calculated.

The subject of data set [7] is PC-3 tumor. Put plainly: Autoradiography of SDS-PAGE of tissue lysates from PC-3 tumor bearing mice. Type of data set: in vivo. To be noted: liver, pancreas, kidney at 24 and 72 hours post-injection.
In data set [8] the target is CatB (Homo sapiens, UniProt P07858). Description: CatB inhibition of GRPR-targeted agents. Type of data set: biochemical. The protocol:
The Inhibition of Cathepsin B Activity by the Conjugates The phosphate buffer (0.1 M, pH=5.8) containing EDTA (1 mM), DTT (2.7 mM), and Brij®35 (0.03%) was prepared before the assay. […] The solution of cathepsin B (human Liver) in assay buffer (50 μL, 0.544 nM) was added to the mixture which was further incubated at 37° C. for 20 minutes. The fluorescence of the liberated aminomethylcoumarin at 460 nM using 355 nm excitation was measured and the IC50 of the cathepsin B inhibition versus the samples without the inhibitor was determined by nonlinear regression using GraphPad Prism 5.

Data set [9] relates to PC-3 tumor. As to conditions: mouse, in vivo.
Data set [10] relates to PC-3 cells. Description: Cellular adduct study (SDS-PAGE of cellular lysates). Type of data set: cell-based, human.
Data set [11] deals with PC-3 cells. Description: Efflux study in PC-3 cells. Type of data set: cell-based, human. To be noted: over a 24 hour time period.

With `Cc1cc(C)c(C(=O)OCC(=O)[C@H](CCCCN)NC(=O)[C@H](Cc2ccccc2)NC(=O)OCc2ccccc2)c(C)c1` [Compound 1a], in data set [1] (read-out: CatB K1), the Ki stood at 23 ± 1 nM. The logD7.4 in data set [2] is given as 2.08 ± 0.08^a.
Regarding `NCCCCC(NC(=O)C(Cc1ccccc1)NC(=O)OCc1ccccc1)C(=O)NCCc1ccccc1` (stereo not shown) [Compound 1b], in data set [1], the “CatB K1” value is “ni^c”. In addition, the logD7.4 in [2] is on record as 2.51 ± 0.02^a.
Turning to `Cc1cc(C)c(C(=O)OCC(=O)[C@H](CCCCNC(=O)COCCOCCOCCn2cc(C[C@H](NC(=O)CN3CCN(CC(=O)O)CCN(CC(=O)O)CCN(CC(=O)O)CC3)C(=O)NCCC(=O)N[C@@H](CCCCN)C(=O)N3CCC[C@H]3C(=O)N(C)[C@@H](CCCNC(=N)N)C(=O)N[C@@H](CCCNC(=N)N)C(=O)N3CCC[C@H]3C(=O)N[C@@H](Cc3c(C)cc(O)cc3C)C(=O)N[C@H](C(=O)N[C@@H](CC(C)C)C(=O)O)C(C)(C)C)nn2)NC(=O)[C@H](Cc2ccccc2)NC(=O)OCc2ccccc2)c(C)c1` [Compound 2c], in data set [3] (GPC profile, HT-29 cells, 4 hours incubation), the “percentage of macromolecular adducts with respect to total intracellular activity” value was determined as 61%. Moreover, in data set [3], the “intracellular adduct formation (in words)” value is “multiple macromolecule adducts formed”. Further, the “adduct formation with CatB (in words)” value in data set [4] is “adduct formation”. In data set [5], this compound displayed an efflux of 36%.
For the compound `Cc1cc(O)cc(C)c1C[C@H](NC(=O)[C@@H]1CCCN1C(=O)[C@H](CCCNC(=N)N)NC(=O)[C@H](CCCNC(=N)N)N(C)C(=O)[C@@H]1CCCN1C(=O)[C@H](CCCCN)NC(=O)CCNC(=O)[C@H](Cc1cn(CCOCCOCCOCC(=O)NCCCC[C@H](NC(=O)[C@H](Cc2ccccc2)NC(=O)OCc2ccccc2)C(=O)NCCc2ccccc2)nn1)NC(=O)CN1CCN(CC(=O)O)CCN(CC(=O)O)CCN(CC(=O)O)CC1)C(=O)N[C@H](C(=O)N[C@@H](CC(C)C)C(=O)O)C(C)(C)C` [Compound 3a], in data set [1], the “CatB K1” value is “ni”; the “Ki and inhibition IC50 to CatB (in words)” value is “did not demonstrate any inhibition”. In addition, the “intracellular adduct formation (in words)” value in [3] was “no adduct formation”. Moreover, the efflux in data set [5] amounted to 66%. In data set [6] (determined by radiometric analysis, 177Lu-labeled conjugate), the logD7.4 is given as −1.56 ± 0.07^b.
On to `CSCC[C@H](NC(=O)[C@H](CC(C)C)NC(=O)[C@H](Cc1c[nH]cn1)NC(=O)CNC(=O)[C@@H](NC(=O)[C@H](C)NC(=O)[C@H](Cc1c[nH]c2ccccc12)NC(=O)[C@H](CCC(N)=O)NC(=O)CCOCCOCCOCCOCCNC(=O)[C@H](Cc1cn(CCNC(=O)[C@H](CCCNC(=N)N)NC(=O)[C@H](CC(C)C)NC(=O)C2OC2C(=O)O)nn1)NC(=O)CN1CCN(CC(=O)O)CCN(CC(=O)O)CCN(CC(=O)O)CC1)C(C)C)C(N)=O` (stereo partly shown) [^177Lu-A-AG, metal not drawn], for which the “adduct formation in tissue lysates (in words)” value in data set [7] is listed as “formation of adducts”. For the same compound, the “inhibition of catB (in words)” value in data set [8] is reported as “low nanomolar inhibition”. The compound also yielded a tumor retention in [9] of 62%. For the same compound, in [10], the “cellular adducts (in words)” value is listed as “cellular adducts are observed”. The “reduction in efflux compared to the analogous control” value in data set [11] is listed as ~20%. For the same compound, the logD7.4 in data set [6] (GRPR-targeted agents) is −3.1 ± 0.1.
Turning to `CC(C)C[C@H](NC(=O)C1OC1C(=O)O)C(=O)N[C@@H](CCCNC(=N)N)C(=O)NCCn1cc(C[C@H](NC(=O)CN2CCN(CC(=O)O)CCN(CC(=O)O)CCN(CC(=O)O)CC2)C(=O)NCCOCCOCCOCCOCCC(=O)N[C@H](Cc2ccccc2)C(=O)N[C@@H](CCC(N)=O)C(=O)N[C@@H](Cc2c[nH]c3ccccc23)C(=O)N[C@@H](C)C(=O)N[C@H](C(=O)NCC(=O)N[C@@H](Cc2c[nH]cn2)C(=O)N[C@@H](CC(C)C)[C@@H](O)CC(=O)N[C@H](CC(C)C)C(N)=O)C(C)C)nn1` (stereo partly shown) [^177Lu-A-ANT, metal not drawn], the “adduct formation in tissue lysates (in words)” value in data set [7] is recorded as “formation of adducts”. Also, the “inhibition of catB (in words)” value in [8] is “low nanomolar inhibition”. The tumor retention in data set [9] was found to be 32%. Besides, in data set [10], the “cellular adducts (in words)” value is “cellular adducts are observed”. The “reduction in efflux compared to the analogous control” value in data set [11] worked out at 5%. For the same compound, in data set [6] (GRPR-targeted agents), the logD7.4 was −2.3 ± 0.2.
